#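 Results reflect a 48-hour exposure of cells in 96-well plates to compound at five concentrations. The concentration for 50% growth inhibition is given as GI50. TGI marks complete inhibition of growth.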
# How the values were obtained:
# Assay in all cases: NCI tumour cell line growth inhibition, 48 h
# CCRF-CEM leukemia = test system: CCRF-CEM leukemia
# KM12 colon = test system: KM12 colon
# SK-MEL-5 melanoma = test system: SK-MEL-5 melanoma
# SK-MEL-28 melanoma = test system: SK-MEL-28 melanoma
# HOP-62 NSCLC = test system: HOP-62 NSCLC
# NCI-H226 lung = test system: NCI-H226 lung
# NCI-H460 lung = test system: NCI-H460 lung
# MALME-3M melanoma = test system: MALME-3M melanoma
# SN12C renal = test system: SN12C renal
# NCI-H23 lung = test system: NCI-H23 lung
# SR leukemia = test system: SR leukemia
# SW-620 colon = test system: SW-620 colon
# HL-60(TB) leukemia = test system: HL-60(TB) leukemia
# UACC-257 melanoma = test system: UACC-257 melanoma
# OVCAR-8 ovarian = test system: OVCAR-8 ovarian
# SF-295 CNS = test system: SF-295 CNS
# K-562 leukemia = test system: K-562 leukemia
# EKVX NSCLC = test system: EKVX NSCLC
# MOLT-4 leukemia = test system: MOLT-4 leukemia
# ACHN renal = test system: ACHN renal
# A498 renal = test system: A498 renal
# SF-268 CNS = test system: SF-268 CNS
# LOX IMVI melanoma = test system: LOX IMVI melanoma
# RXF 393 renal = test system: RXF 393 renal
# SK-MEL-2 melanoma = test system: SK-MEL-2 melanoma
# TK-10 renal = test system: TK-10 renal
# RPMI-8226 leukemia = test system: RPMI-8226 leukemia
# OVCAR-4 ovarian = test system: OVCAR-4 ovarian
# SNB-75 CNS = test system: SNB-75 CNS
# DMS 273 small cell lung = test system: DMS 273 small cell lung
# HCT-15 colon = test system: HCT-15 colon
# SF-539 CNS = test system: SF-539 CNS
# UO-31 renal = test system: UO-31 renal
# U251 CNS = test system: U251 CNS
# OVCAR-3 ovarian = test system: OVCAR-3 ovarian
# HCC-2998 colon = test system: HCC-2998 colon
# DMS 114 small cell lung = test system: DMS 114 small cell lung
# OVCAR-5 ovarian = test system: OVCAR-5 ovarian
# HT29 colon = test system: HT29 colon
# SNB-78 CNS = test system: SNB-78 CNS
# COLO 205 colon = test system: COLO 205 colon
# KM20L2 colon = test system: KM20L2 colon
# IGROV1 ovarian = test system: IGROV1 ovarian
# UACC-62 melanoma = test system: UACC-62 melanoma
# CAKI-1 renal = test system: CAKI-1 renal
# 786-0 renal = test system: 786-0 renal
# NCI-H522 lung = test system: NCI-H522 lung
# SNB-19 CNS = test system: SNB-19 CNS
# HCT-116 colon = test system: HCT-116 colon
# M14 melanoma = test system: M14 melanoma
# A549 NSCLC = test system: A549 NSCLC
# XF 498 CNS = test system: XF 498 CNS
# LXFL 529 NSCLC = test system: LXFL 529 NSCLC
# M19-MEL melanoma = test system: M19-MEL melanoma
# DLD-1 colon = test system: DLD-1 colon
# SK-OV-3 ovarian = test system: SK-OV-3 ovarian
# HOP-18 NSCLC = test system: HOP-18 NSCLC
# HOP-92 NSCLC = test system: HOP-92 NSCLC
structure (smiles),measurement,setting,value
CN(C)C(=S)/N=c1\ss/c(=N\C(=S)N(C)C)n1-c1cccc(Cl)c1,TGI,CCRF-CEM leukemia,> 100 µM
same,TGI,KM12 colon,> 100 µM
same,TGI,SK-MEL-5 melanoma,> 100 µM
same,TGI,SK-MEL-28 melanoma,> 100 µM
same,TGI,HOP-62 NSCLC,> 100 µM
same,TGI,NCI-H226 lung,> 100 µM
same,TGI,NCI-H460 lung,> 100 µM
same,TGI,MALME-3M melanoma,> 100 µM
same,TGI,SN12C renal,> 100 µM
same,TGI,NCI-H23 lung,> 100 µM
same,TGI,SR leukemia,> 100 µM
same,TGI,SW-620 colon,> 100 µM
same,TGI,HL-60(TB) leukemia,> 100 µM
same,TGI,UACC-257 melanoma,> 100 µM
same,TGI,OVCAR-8 ovarian,> 100 µM
same,TGI,SF-295 CNS,> 100 µM
same,TGI,K-562 leukemia,> 100 µM
same,TGI,EKVX NSCLC,> 100 µM
same,TGI,MOLT-4 leukemia,> 100 µM
same,TGI,ACHN renal,> 100 µM
same,TGI,A498 renal,> 100 µM
same,TGI,SF-268 CNS,> 100 µM
same,TGI,LOX IMVI melanoma,> 100 µM
same,TGI,RXF 393 renal,> 100 µM
same,TGI,SK-MEL-2 melanoma,> 100 µM
same,TGI,TK-10 renal,> 100 µM
same,TGI,RPMI-8226 leukemia,> 100 µM
same,TGI,OVCAR-4 ovarian,> 100 µM
same,TGI,SNB-75 CNS,> 100 µM
same,TGI,DMS 273 small cell lung,> 100 µM
same,TGI,HCT-15 colon,> 100 µM
same,TGI,SF-539 CNS,> 100 µM
same,TGI,UO-31 renal,> 100 µM
same,TGI,U251 CNS,> 100 µM
same,TGI,OVCAR-3 ovarian,> 100 µM
same,TGI,HCC-2998 colon,> 100 µM
same,TGI,DMS 114 small cell lung,> 100 µM
same,TGI,OVCAR-5 ovarian,> 100 µM
same,TGI,HT29 colon,> 100 µM
same,TGI,SNB-78 CNS,> 100 µM
same,TGI,COLO 205 colon,> 100 µM
same,TGI,KM20L2 colon,> 100 µM
same,TGI,IGROV1 ovarian,> 100 µM
same,TGI,UACC-62 melanoma,> 100 µM
same,TGI,CAKI-1 renal,> 100 µM
same,TGI,786-0 renal,> 100 µM
same,TGI,NCI-H522 lung,> 100 µM
same,TGI,SNB-19 CNS,> 100 µM
same,TGI,HCT-116 colon,> 100 µM
same,TGI,M14 melanoma,> 100 µM
same,TGI,A549 NSCLC,> 100 µM
C[s+]1c2ccccc2c2ccccc21,TGI,CCRF-CEM leukemia,> 100 µM
same,TGI,KM12 colon,> 100 µM
same,TGI,SK-MEL-5 melanoma,> 100 µM
same,TGI,SK-MEL-28 melanoma,> 100 µM
same,TGI,HOP-62 NSCLC,> 100 µM
same,TGI,NCI-H226 lung,> 100 µM
same,TGI,NCI-H460 lung,> 100 µM
same,TGI,MALME-3M melanoma,> 100 µM
same,TGI,SN12C renal,> 100 µM
same,TGI,SR leukemia,> 100 µM
same,TGI,XF 498 CNS,> 100 µM
same,TGI,SW-620 colon,> 100 µM
same,TGI,HL-60(TB) leukemia,> 100 µM
same,TGI,OVCAR-8 ovarian,> 100 µM
same,TGI,SF-295 CNS,> 100 µM
same,TGI,K-562 leukemia,> 100 µM
same,TGI,EKVX NSCLC,> 100 µM
same,TGI,MOLT-4 leukemia,> 100 µM
same,TGI,ACHN renal,> 100 µM
same,TGI,SF-268 CNS,> 100 µM
same,TGI,LOX IMVI melanoma,> 100 µM
same,TGI,RXF 393 renal,> 100 µM
same,TGI,SK-MEL-2 melanoma,> 100 µM
same,TGI,TK-10 renal,> 100 µM
same,TGI,RPMI-8226 leukemia,> 100 µM
same,TGI,OVCAR-4 ovarian,> 100 µM
same,TGI,DMS 273 small cell lung,> 100 µM
same,TGI,HCT-15 colon,> 100 µM
same,TGI,SF-539 CNS,> 100 µM
same,TGI,UO-31 renal,> 100 µM
same,TGI,U251 CNS,> 100 µM
same,TGI,OVCAR-3 ovarian,> 100 µM
same,TGI,HCC-2998 colon,> 100 µM
same,TGI,LXFL 529 NSCLC,> 100 µM
same,TGI,M19-MEL melanoma,> 100 µM
same,TGI,OVCAR-5 ovarian,> 100 µM
same,TGI,HT29 colon,> 100 µM
same,TGI,SNB-78 CNS,> 100 µM
same,TGI,COLO 205 colon,> 100 µM
same,TGI,KM20L2 colon,> 100 µM
same,TGI,IGROV1 ovarian,> 100 µM
same,TGI,UACC-62 melanoma,> 100 µM
same,TGI,786-0 renal,> 100 µM
same,TGI,NCI-H522 lung,> 100 µM
same,TGI,SNB-19 CNS,> 100 µM
same,TGI,HCT-116 colon,> 100 µM
same,TGI,M14 melanoma,> 100 µM
same,TGI,A549 NSCLC,> 100 µM
CC(=O)[CH-]C(C)=O.CC(=O)[CH-]C(C)=O.[O-]c1ccccc1.[O-]c1ccccc1.[Ti+4],GI50,CCRF-CEM leukemia,> 100 µM
same,TGI,CCRF-CEM leukemia,> 100 µM
same,GI50,KM12 colon,> 100 µM
same,TGI,KM12 colon,> 100 µM
same,GI50,SK-MEL-5 melanoma,> 100 µM
same,TGI,SK-MEL-5 melanoma,> 100 µM
same,GI50,SK-MEL-28 melanoma,> 100 µM
same,TGI,SK-MEL-28 melanoma,> 100 µM
same,GI50,NCI-H226 lung,> 100 µM
same,TGI,NCI-H226 lung,> 100 µM
same,GI50,NCI-H460 lung,> 100 µM
same,TGI,NCI-H460 lung,> 100 µM
same,GI50,MALME-3M melanoma,> 100 µM
same,TGI,MALME-3M melanoma,> 100 µM
same,GI50,NCI-H23 lung,> 100 µM
same,TGI,NCI-H23 lung,> 100 µM
same,GI50,SR leukemia,> 100 µM
same,TGI,SR leukemia,> 100 µM
same,GI50,XF 498 CNS,> 100 µM
same,TGI,XF 498 CNS,> 100 µM
same,GI50,SW-620 colon,> 100 µM
same,TGI,SW-620 colon,> 100 µM
same,GI50,HL-60(TB) leukemia,> 100 µM
same,TGI,HL-60(TB) leukemia,> 100 µM
same,GI50,UACC-257 melanoma,> 100 µM
same,TGI,UACC-257 melanoma,> 100 µM
same,GI50,OVCAR-8 ovarian,> 100 µM
same,TGI,OVCAR-8 ovarian,> 100 µM
same,GI50,DLD-1 colon,> 100 µM
same,TGI,DLD-1 colon,> 100 µM
same,GI50,SF-295 CNS,> 100 µM
same,TGI,SF-295 CNS,> 100 µM
same,GI50,K-562 leukemia,> 100 µM
same,TGI,K-562 leukemia,> 100 µM
same,GI50,EKVX NSCLC,> 100 µM
same,TGI,EKVX NSCLC,> 100 µM
same,GI50,MOLT-4 leukemia,> 100 µM
same,TGI,MOLT-4 leukemia,> 100 µM
same,GI50,ACHN renal,> 100 µM
same,TGI,ACHN renal,> 100 µM
same,GI50,SF-268 CNS,> 100 µM
same,TGI,SF-268 CNS,> 100 µM
same,GI50,LOX IMVI melanoma,> 100 µM
same,TGI,LOX IMVI melanoma,> 100 µM
same,GI50,SK-MEL-2 melanoma,> 100 µM
same,TGI,SK-MEL-2 melanoma,> 100 µM
same,GI50,SK-OV-3 ovarian,> 100 µM
same,TGI,SK-OV-3 ovarian,> 100 µM
same,GI50,TK-10 renal,> 100 µM
same,TGI,TK-10 renal,> 100 µM
same,GI50,RPMI-8226 leukemia,> 100 µM
same,TGI,RPMI-8226 leukemia,> 100 µM
same,GI50,OVCAR-4 ovarian,> 100 µM
same,TGI,OVCAR-4 ovarian,> 100 µM
same,GI50,SNB-75 CNS,> 100 µM
same,TGI,SNB-75 CNS,> 100 µM
same,GI50,DMS 273 small cell lung,> 100 µM
same,TGI,DMS 273 small cell lung,> 100 µM
same,GI50,HCT-15 colon,> 100 µM
same,TGI,HCT-15 colon,> 100 µM
same,GI50,SF-539 CNS,> 100 µM
same,TGI,SF-539 CNS,> 100 µM
same,GI50,UO-31 renal,> 100 µM
same,TGI,UO-31 renal,> 100 µM
same,GI50,U251 CNS,> 100 µM
same,TGI,U251 CNS,> 100 µM
same,GI50,HCC-2998 colon,> 100 µM
same,TGI,HCC-2998 colon,> 100 µM
same,GI50,DMS 114 small cell lung,> 100 µM
same,TGI,DMS 114 small cell lung,> 100 µM
same,GI50,LXFL 529 NSCLC,> 100 µM
same,TGI,LXFL 529 NSCLC,> 100 µM
same,GI50,OVCAR-5 ovarian,> 100 µM
same,TGI,OVCAR-5 ovarian,> 100 µM
same,GI50,HT29 colon,> 100 µM
same,TGI,HT29 colon,> 100 µM
same,GI50,COLO 205 colon,> 100 µM
same,TGI,COLO 205 colon,> 100 µM
same,GI50,KM20L2 colon,> 100 µM
same,TGI,KM20L2 colon,> 100 µM
same,GI50,IGROV1 ovarian,> 100 µM
same,TGI,IGROV1 ovarian,> 100 µM
same,GI50,UACC-62 melanoma,> 100 µM
same,TGI,UACC-62 melanoma,> 100 µM
same,GI50,HOP-18 NSCLC,> 100 µM
same,TGI,HOP-18 NSCLC,> 100 µM
same,GI50,CAKI-1 renal,> 100 µM
same,TGI,CAKI-1 renal,> 100 µM
same,GI50,HOP-92 NSCLC,> 100 µM
same,TGI,HOP-92 NSCLC,> 100 µM
same,GI50,786-0 renal,> 100 µM
same,TGI,786-0 renal,> 100 µM
same,GI50,NCI-H522 lung,> 100 µM
same,TGI,NCI-H522 lung,> 100 µM
same,GI50,SNB-19 CNS,> 100 µM
same,TGI,SNB-19 CNS,> 100 µM
same,GI50,HCT-116 colon,> 100 µM
same,TGI,HCT-116 colon,> 100 µM
same,GI50,A549 NSCLC,> 100 µM
same,TGI,A549 NSCLC,> 100 µM

# — PubChem BioAssay (NCI)
